Source: patent publication US9101600B2, “Compounds as RORγt modulators and uses thereof” (New York University, priority 2010, dated 2015)

How the values were obtained:
[1] = system: mouse Th17 cell differentiation; test: Cytokine induced mouse Th17 cell differentiation (IL17a production, FACS); assay type: cell-based
Protocol: Cytokine induced mouse Th17 cells differentiation. Effects on mouse endogenous RORγt in a relevant physiological setting were determined by testing compounds in the Th17 cell differentiation assay. […] Th1 or regulatory T cell differentiation was used as a counter-screen method to select specific compounds that only affect Th17 cell differentiation without having pleiotrophic effects on general T cell proliferation or cytokine production.
Naive CD4 T cells were cultured with CD3/CD28 stimulatory antibodies in presence of TGFβ and IL6. Compounds were added on Day 1 and cells were analyzed on Day 4. Numbers shown in Table 3 indicate the percentage of mouse Th17 cells.
CD25^−, CD62L^+, and CD44^int-high cells were sorted from B6 mice.

RORγ/γt [2] = biological target: T1, RORγ/γt (Mus musculus, UniProt P51450, T352K); test: RORγ/γt-luc reporter S2 cell assay / HTS (firefly luciferase); conditions: for 80% Inhib. @: RORγ/γt reporter, S2 cells, concentration for 80% inhibition; for Curve Class: RORγ/γt HTS concentration response curve class
T1 sequence (P51450 with tags, fused parts or gaps T352K): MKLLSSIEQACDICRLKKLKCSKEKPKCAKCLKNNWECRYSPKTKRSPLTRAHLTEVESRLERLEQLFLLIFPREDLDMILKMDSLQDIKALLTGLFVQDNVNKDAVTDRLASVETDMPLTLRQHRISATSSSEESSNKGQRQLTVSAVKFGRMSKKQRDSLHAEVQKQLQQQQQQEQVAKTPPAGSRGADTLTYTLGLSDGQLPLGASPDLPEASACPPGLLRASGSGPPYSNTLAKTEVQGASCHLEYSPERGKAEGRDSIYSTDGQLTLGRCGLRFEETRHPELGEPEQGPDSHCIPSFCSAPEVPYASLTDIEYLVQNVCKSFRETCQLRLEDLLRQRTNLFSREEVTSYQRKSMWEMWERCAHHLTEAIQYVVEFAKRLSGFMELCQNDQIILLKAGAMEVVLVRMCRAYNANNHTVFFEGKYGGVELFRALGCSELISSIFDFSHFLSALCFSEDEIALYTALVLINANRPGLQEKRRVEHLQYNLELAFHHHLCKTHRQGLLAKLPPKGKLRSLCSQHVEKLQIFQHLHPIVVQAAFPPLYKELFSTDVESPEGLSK
Description: The Drosophila S2 cell line was originally purchased from Invitrogen and was maintained in Schneider's medium supplemented with 10% heat-inactivated bovine fetal calf serum and antibiotics (Invitrogen). Gal4 DNA binding domain (G4 DBD) corresponding to amino acids 1 through 147 of Gal4 protein was PCR amplified to make a fusion construct with mouse RORγt (amino acids 79 to the carboxyl terminal end) lacking its DNA binding domain. The resulting chimeric gene was subcloned into the copper inducible pMT/V5-His A vector (available from Invitrogen). In a similar manner, Gal4 fusion constructs were prepared with mouse RORα (amino acids 142 to end) or Drosophila DHR3 (amino acids 120 to end).
In order to generate stable cell lines, cells were co-transfected with pMT-G4 DBD-RORγt, pMT-G4 DBD-RORα, pMT-G4 DBD-DHR3, or pMT-G4DBDVP16 and pHygro plasmids (Invitrogen) and screened for resistant colonies in the presence of hygromycin (0.3 mg/mL). More than 150 independent RORγ stable clones with luciferase reporters (pMt-RORγ_luc) were tested for their suitability for the high-throughput screening (HTS) based on the following criteria: high signal-to background ratio in 384- and 1,536-well plates, their high induction rate upon the addition of copper, and RORγ/γt specificity probed by the dsRORγ- or RORγ/γt antagonist-mediated suppression. Positive clones were further transfected with pUAST-firefly luciferase, polIII-Renilla luciferase, and pCoPuro (Iwaki, Figuera et al. 2003) (“Rapid selection of Drosophila S2 cells with the puromycin resistance gene.” Biotechniques 35(3): 482-4, 486.) and selected with puromycin (2.5 ug/ml). […] Using similar methods, stable clones with genomic integration of the luciferase reporters and other reporters were generated such as pMT-RORα_luc, pMT-DHR3_luc, or pMT-VP16_luc.
600 G4 DBD-RORγ/γt-luc reporter (#25) or G4 DBD-VP16-luc reporter cells were distributed into each well of 1,536-well white bottom plates in 4 μl S2 cell culture volume containing hygromicin (300 μg/ml) and puromycin (2 μg/ml). Small compounds in seven different concentrations range from 46 μM to 1.7 nM were pin-transferred (23 nl) by a robot (Inglese et al., 2006, Proc. Natl. Acad. Sci. 103:11473-8). […] After 20-hour incubation at ambient temperature, 1.5 μl firefly luciferase detection mix was added and the luciferase activities were measured in 10 min. ViewLux luminometers were used for measuring luciferase signal.
Since their cognate DNA binding sites were not well characterized, the DNA binding domains (DBD) of RORγ/γt, RORα(mouse homolog for PORγ), and DHR3 (Drosophila orthologue for ROR family proteins) were replaced with the heterologous yeast GAL4 DBD. The transcriptionally active domain of general transcriptional activator VP16 was also fused with GAL4 DBD.

[3] = system: VP16-luc, RORα-luc, and DHR3-luc reporter S2 cell lines; test: S2 cell reporter specificity test on other closely related reporters; assay type: cell-based; conditions: S2 cell assay
RORγ = biological target: T2, RORγ (Homo sapiens, UniProt P51449); test: RORγ overexpression dependent IL17a production in human CD4 T cells (RORγt-IRES-GFP transduced); assay type: cell-based; conditions: human peripheral blood naive CD4+ T cells, transduced day 1, analyzed day 6
T2 construct: expressed in transfected cells; host or cells: human peripheral blood naive CD4+ T cells, virally transduced
T2 sequence (P51449 1-497 isoform P51449-2): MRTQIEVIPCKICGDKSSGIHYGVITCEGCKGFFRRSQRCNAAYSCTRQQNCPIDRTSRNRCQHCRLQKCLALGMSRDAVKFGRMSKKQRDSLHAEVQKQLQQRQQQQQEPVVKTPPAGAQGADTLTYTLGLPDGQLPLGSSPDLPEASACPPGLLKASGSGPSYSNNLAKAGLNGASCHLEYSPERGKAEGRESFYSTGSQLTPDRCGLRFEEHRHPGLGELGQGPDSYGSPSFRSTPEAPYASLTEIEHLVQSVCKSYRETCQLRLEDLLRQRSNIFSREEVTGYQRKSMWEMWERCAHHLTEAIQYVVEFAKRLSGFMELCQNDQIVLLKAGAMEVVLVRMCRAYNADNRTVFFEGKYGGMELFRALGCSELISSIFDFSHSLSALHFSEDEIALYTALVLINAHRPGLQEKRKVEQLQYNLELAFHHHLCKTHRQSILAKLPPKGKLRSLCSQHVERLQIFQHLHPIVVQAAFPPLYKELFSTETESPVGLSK
Protocol: ROR dependent Th17 cell differentiation.
GFP expressing cells were gated for analysis. DMSO or compounds were added 6-8 hours after viral transduction.

RORγ/γt [4] = biological target: T1, RORγ/γt; test: Small-scale screening, G4BD-RORγt stable S2 cells with transient transfection of two luciferase constructs; assay type: cell-based; design: expressed in transfected cells
Protocol: Promega Dual-Glo system is widely used for HTS as the luciferase substrates. Cell culture medium was reduced to the final volume of 10 μl or less and 10 μl of Dual-glo and 10 μl of Stop-glo luciferase substrates were added in a sequencial manner (Promega). Firefly and Renilla luciferase activity was determined by measuring luminescence signals using an automated 384-well plate reader equipped with multiple stack units (such as the Analyst GT or Envision plate readers).

[5] = system: human naive cord blood T cells; test: Human Th17 cell differentiation, naive cord blood T cells (IL-17a and IFN-γ, flow cytometry); assay type: cell-based; conditions: six days, IL2, IL23, ILβ, TGFβ
Description: Human Th17 cell differentiation. Compound effects on human RORγt will be tested by treating human cord blood CD4 T cells with select compounds to determine if such compounds alter differentiation into Th17 lineages.

[6] = 20 μM, DMSO 17% Th17, compound added Day 1, analyzed Day 4
[7] = at 10 uM (Table 4, printed in 20 μM column)
[8] = 5 μM, DMSO 25% Th17, compound added Day 1, analyzed Day 4

Structure (SMILES): COc1ccc(C(=O)/C=C/c2ccc(OC)cc2OC)c(O)c1 [MLS001048850-02]
- percentage of mouse Th17 cells (IL17a production) [1, 6]: 11.9%
- IC50 (RORγ/γt [2]): 0.543 µM
- 80% Inhib. @ (RORγ/γt [2]): 1.646 µM

Structure (SMILES): CCOC(=O)[C@@H]1[C@H]2COc3ccc(Br)cc3[C@@H]2N2C(=O)N(c3ccccc3)C(=O)[C@@]12C [MLS001066232-01]
- activity of other closely related reporters (in words) [3]: without affecting the activity
- percentage of mouse Th17 cells (IL17a production) [1, 7]: 10.4 (at 10 uM) %
- RORγ overexpression dependent IL17a production (in words) (RORγ): inhibit
- AC50 (RORγ/γt [2]): 10 µM
- Curve Class (RORγ/γt [2]): −2.1
- RORγ/γt reporter activity (in words) (RORγ/γt [2]; S2 cell reporter): inhibition of RORγ reporter

Structure (SMILES): CCOC(=O)[C@@H]1[C@H]2COc3cc(OC)ccc3[C@@H]2N2C(=O)N(c3ccc(C)cc3)C(=O)[C@@]12C [MLS001066267-01]
- percentage of mouse Th17 cells (IL17a production) [1, 7]: 13.5 (at 10 uM) %
- RORγ overexpression dependent IL17a production (in words) (RORγ): inhibit
- AC50 (RORγ/γt [2]): 5.01 µM
- IC50 (RORγ/γt [2]): 5 µM
- Curve Class (RORγ/γt [2]): −2.1
- 80% Inhib. @ (RORγ/γt [2]): 10 µM

Structure (SMILES): CC(C)[C@@H](NC(=O)C1CCN(C(=O)[C@@H]2CCCN2C(=O)OC(C)(C)C)CC1)C(=O)NCc1ccc(F)cc1 [MLS001141034-02]
- IC50 (RORγ/γt [2]): 38.7 µM
- 80% Inhib. @ (RORγ/γt [2]): 161.2 µM

Structure (SMILES): COc1ccccc1CNC(=O)[C@@H](NC(=O)C1CCN(C(=O)[C@@H]2CCCN2C(=O)OC(C)(C)C)CC1)C(C)C [MLS001157801-02]
- IC50 (RORγ/γt [2]): 14.7 µM
- 80% Inhib. @ (RORγ/γt [2]): 45.85 µM

Structure (SMILES): CN1CCN(C(=O)CCN2C(=O)/C(=C\c3ccccc3F)SC2=S)CC1 [MLS001201644-02]
- IC50 (RORγ/γt [2]): 16.7 µM
- 80% Inhib. @ (RORγ/γt [2]): 40.36 µM

Structure (SMILES): CC(C)(C)c1ccc(-c2noc(CCC(=O)Nc3cccnc3)n2)cc1 [MLS001217081-02]
- percentage of mouse Th17 cells (IL17a production) [1, 6]: 8.3%

Structure (SMILES): CCOC(=O)[C@@H]1[C@H]2COc3ccc(Br)cc3[C@@H]2N2C(=O)N(c3ccc(C)cc3)C(=O)[C@]12C [MLS0010660292-01]
- AC50 (RORγ/γt [2]): 11.2 µM
- Curve Class (RORγ/γt [2]): 4

Structure (SMILES): CC(=O)[C@@]1(O)CC[C@H]2[C@H]3C[C@@H](C)C4=CC(=O)C=C[C@]4(C)[C@@]3(F)[C@@H](O)C[C@]21C [NCGC00016442-02]
- percentage of mouse Th17 cells (IL17a production) [1, 8]: 4.8%
- percentage of mouse Th17 cells (IL17a production) [1, 6]: 2.6%

Structure (SMILES): Cc1ccc(Sc2cncc3sc(C(N)=O)cc23)cc1 [NCGC00167761-02]
- percentage of mouse Th17 cells (IL17a production) [1, 8]: 11.6%
- percentage of mouse Th17 cells (IL17a production) [1, 6]: 3.6%
- IC50 (RORγ/γt [2]): 0.281 µM
- 80% Inhib. @ (RORγ/γt [2]): 0.7759 µM

Structure (SMILES): CO[C@H]1[C@@H](O)CC(OC2[C@@H](O)CC(OC3[C@@H](O)C[C@H](OC4CC[C@@]5(C)C(CCC6C5CC(O)[C@]5(C)[C@H](C7=CC(=O)OC7)CCC65O)C4)O[C@@H]3C)O[C@@H]2C)O[C@@H]1C (some centres unmarked) [NCGC00168746-02]
- percentage of mouse Th17 cells (IL17a production) [1, 8]: 4.5%
- percentage of mouse Th17 cells (IL17a production) [1, 6]: 1.2%
- IC50 (RORγ/γt [2]): 1.99 µM
- 80% Inhib. @ (RORγ/γt [2]): 6.27 µM

Structure (SMILES): C[C@H]1O[C@@H](O[C@H]2[C@@H](O)C[C@H](O[C@H]3[C@@H](O)C[C@H](O[C@H]4CC[C@@]5(C)[C@H](CC[C@@H]6[C@@H]5CC[C@]5(C)[C@@H](C7=CC(=O)OC7)CC[C@]65O)C4)O[C@@H]3C)O[C@@H]2C)C[C@H](O)[C@@H]1O [digitoxin]
- RORγ/γt antagonist identification (in words) (RORγ/γt [4]): specific RORγ/γt antagonists

Structure (SMILES): CC1OC(OC2C(O)CC(OC3C(O)CC(OC4CCC5(C)C(CCC6C5CC(O)C5(C)C(C7=CC(=O)OC7)CCC65O)C4)OC3C)OC2C)CC(O)C1O (centres unmarked) [digoxin, reference compound]
- Th17 (percentage of mouse Th17 cells) ([1]; 10 μM, DMSO 26% (Table 5)): 0.91%

Structure (SMILES): C[C@H]1[C@H](C)CC[C@]2(C(=O)O)CC[C@]3(C)C(=CC[C@@H]4[C@@]5(C)CC[C@H](O)C(C)(C)[C@@H]5CC[C@]43C)[C@H]12 [ursolic acid]
- effect on mouse Th17 cell differentiation / IL-17a in mouse CD4 T cells (in words) ([1]; IL-6 and TGF-β): RORγt specific inhibitory effects
- effect on human CD4 T cell cytokine production (in words) [5]: RORγt specific inhibitory effects
